Test results reported in US6903114B2, “Derivatives of naphthalene with COMT inhibiting activity” (Orion Corporation, priority 2000, dated 2005).

Target: T1, S-COMT enzyme (Homo sapiens, UniProt P21964)
T1 sequence (P21964 1-221 isoform P21964-2): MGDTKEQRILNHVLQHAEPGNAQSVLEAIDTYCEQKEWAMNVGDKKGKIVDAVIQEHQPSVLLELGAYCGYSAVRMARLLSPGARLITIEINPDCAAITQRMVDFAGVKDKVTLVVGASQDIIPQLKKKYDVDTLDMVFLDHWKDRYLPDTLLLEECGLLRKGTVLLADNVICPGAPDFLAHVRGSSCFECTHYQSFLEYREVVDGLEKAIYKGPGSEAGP
Assay: Determination of COMT activity (IC50)
Type: biochemical
Settings: S-COMT about 30 nM, 3 mM dopamine substrate, 0.05 mM AdoMet, 5 mM MgCl2, pH 7.4, 37° C., 15 min; HPLC
Protocol: EXPERIMENT I: Determination of COMT activity (IC50)
The determination of IC50 was performed by measuring the COMT activity in a test sample which contained S-COMT enzyme (about 30 nM), 3 mM dopamine (as the substrate of COMT), 5 mM magnesium chloride, 0.05 mM S-adenosyl-L-methionine (AdoMet) and a test compound of the invention at various concentrations in 0.1 M phosphate buffer, pH 7.4, at 37° C.
The reaction in the test sample was initiated by adding the dopamine substrate to the sample mixture and, after incubation for 15 min at 37° C., the reaction was stopped with 4 M perchloric acid and stabilized further 10 min in ice bath. Thereafter the precipitated proteins were removed by centrifugation (4000×G for 10 min). The activity of COMT enzyme was measured by determining the concentration of the reaction products, 3-methyldopamine and 4-methyldopamine, by HPLC. The results were calibrated with 3-methyldopamine standards. See also T. Lotta et al., Biochemistry, vol.34(13), 1995, p.4204. The IC50 value is the concentration of the test compound which causes a 50% decrease in COMT activity.

IC50 | Compound
30 nM | O=C(O)c1ccc2c([N+](=O)[O-])c(O)c(O)cc2c1 [Example 7, 6,7-Dihydroxy-5-nitro-naphthalene-2-carboxylic Acid]
200 nM | O=Cc1c(O)c(O)cc2ccccc12 [Example 8, 2,3-Dihydroxy-naphthalene-1-carbaldehyde]
80 nM | CCCCCCC(=O)c1ccc2c([N+](=O)[O-])c(O)c(O)cc2c1 [Example 9, 1-(6,7-Dihydroxy-5-nitro-naphthalen-2-yl)-heptan-1-one]
25 nM | CCCN(CCC)S(=O)(=O)c1ccc2c([N+](=O)[O-])c(O)c(O)cc2c1 [Example 11, 6,7-Dihydroxy-5-nitro-naphthalene-2-sulfonic Acid Dipropylamide]
100 nM | N#Cc1c(O)c(O)cc2ccccc12 [Example 13, 2,3-Dihydroxy-naphthalene-1-carbonitrile]
15 nM | CN1CCN(C(=O)c2ccc3c([N+](=O)[O-])c(O)c(O)cc3c2)CC1 [Example 14, (6,7-Dihydroxy-5-nitro-naphthalen-2-yl)-(4-methyl-piperazin-1-yl)-methanone]
140 nM | O=[N+]([O-])c1c(O)c(O)c(Br)c2ccncc12 [Example 15, 5-Bromo-6,7-dihydroxy-8-nitro-isoquinolinium; Bromide]

The next lines start with the compound.

Compound | IC50
O=[N+]([O-])c1c(O)c(O)cc2ccccc12 [Example 1, 1-Nitronaphthalene-2,3-diol] | 30 nM
O=C(c1ccccc1)c1ccc2c([N+](=O)[O-])c(O)c(O)cc2c1 [Example 3, (6,7-Dihydroxy-5-nitro-naphthalen-2-yl)-phenyl-methanone] | 80 nM
CC(C)C(=O)c1ccc2c([N+](=O)[O-])c(O)c(O)cc2c1 [Example 4, 1-(6,7-Dihydroxy-5-nitro-naphthalen-2-yl)-2-methyl-propan-1-one] | 25 nM
CC(C)Cc1ccc2c([N+](=O)[O-])c(O)c(O)cc2c1 [Example 5, 6-Isobutyl-1-nitro-naphthalene-2,3-diol] | 45 nM
O=[N+]([O-])c1ccc2c([N+](=O)[O-])c(O)c(O)cc2c1 [Example 10, 1,6-Dinitro-naphthalene-2,3-diol] | 15 nM
